Consider ten compounds from patent publication US5733754A, “Enzyme and its use in preparing (S)-pipecolic acid” (Chiroscience Limited, priority 1993, dated 1998).

Experiment [1] concerns N-acyl-pipecolic acid acylase. Briefly: Alternative substrates: activity of semi-purified enzyme preparation on N-acetylamino-acids. In kind it is biochemical, Alcaligenes denitrificans. Conditions: 1 ml substrate 40 g/l + 0.5 ml enzyme + 0.5 ml 100 mM Tris buffer pH 7.5; 24-25° C., 1 hour. The procedure: The sonicate supernatants were then used in the following biotransformation reactions. To 1 ml of the sonicate supernatants, 1 ml of 40 g/l solution of N-acetyl-rac-pipecolate, pH 7, was added in the presence of 0.02% sodium azide. The biotransformation reaction mixtures were incubated with shaking for 48 h at 25° C., after which samples were removed and analysed by HPLC. HPLC analysis was done using a 15 cm Hichrom S50DS2 column with an isocratic mobile phase of 30% methanol:70% 10 mM potassium phosphate buffer, pH 3, at a flow rate of 1 ml/min. The injection volume was 20 μl and the detection was at 240 nm, total run time was 10 minutes. Prior to loading on to the column, the sample was diluted 20-fold in the HPLC mobile phase and centrifuged. The analyses as shown by this procedure provided values of residual substrate concentrations. A substrate control was run in parallel with the sample reactions.
(§1) The activity of a semi-purified enzyme preparation, as described in Example 4, was tested on a range of alternative substrates. Various N-acetylamino-acid solutions were prepared at a concentration of 40 g/l in 100 mM Tris buffer at pH 7.5. Reactions were then set up using 1 ml of reaction substrate plus 0.5 ml enzyme plus 0.5 ml 100 mM Tris buffer, pH 7.5. The reaction mixtures were shaken at 24°-25° C. for 1 hour before being analysed for amino-acid formation. The extent of reaction for the N-acetylpipecolic acid and N-acetylproline biotransformations was determined using the HPLC methodology described in Example 1. The extent and enantioselectivity of the other biotransformations was determined using a Nucleosil Chiral-1 (ET250/8/4 with a buffer phase of 1 mM copper acetate at pH 5 in 5% methanol, and a flow rate of 0.8 ml/min, with detection at 254 nm. Samples were diluted 100-fold and areas compared to relevant standards.

The subject of experiment [2] is N-acylamino-acid acylase of EP-A-0416282. Conditions: cited from earlier work.
Experiment [3] has as its system N-acyl-pipecolic acid acylase (amino acylase). Briefly: Alternative buffers: effect of high phosphate on the biotransformation. Conditions: for Amino-acid formed: pH 7.5. The format is biochemical, Alcaligenes denitrificans. As for the experimental part: as §1
The acylase disclosed in EP-A-0416282 is inhibited by reaction in buffers containing phosphate at high concentrations. The effect of high phosphate on the biotransformation was determined using a similar methodology to that described in Example 6.

The subject of experiment [4] is N-acetyl-pipecolic acid acylase activity. Briefly: Use of inducer: flask cultures with additive, acylase activity of the cell extract. In kind it is cell-based, Alcaligenes denitrificans. Conditions: for Specific (activity) / Volumetric Activity: additive in growth medium (5 g/l), extract used in 24 hour biotransformation of 20 g/l N-acetyl-(R,S)-pipecolic acid, 1U = release of 1 μmole pipecolic acid per minute. The procedure: It has been observed by other workers that an inducer must be added to the fermentation medium to obtain N-acyl-amino-acid acylase activity. This adds to the cost of producing the enzyme. Flask cultures were set up to determine the requirement for an inducer. Medium used was similar to that described in Table 1, except that the N-acetyl-L-phenylalanine was omitted, 1 g/l yeast extract was added and the following 4 variations were set up.
The final pH of all flasks was adjusted to pH 7.0 and a total of 50 ml added to 500 ml conical flasks. Following inoculation, the flasks were incubated at 25° C. with shaking for 19 hours. The cells were then collected by centrifugation, resuspended in 10 mM phosphate buffer, pH 7 and lysed by sonication. The released enzyme extract was then used in a 24 hour biotransformation of 20 g/l N-acetyl-(R,S)-pipecolic acid.
1U = release of 1 μmole pipecolic acid per minute

Consider `CC(=O)NC(C)C(=O)O` (racemic) [N-acetyl-(R,S)-alanine], for which, in experiment [1], the Amino-acid formed was 3.4 g/L. Also, in experiment [2] (enzyme of EP-A-0416282), the “activity of the enzyme against substrate” value is listed as “non-detectable”.
As for `CC(=O)NCCCC[C@H](N)C(=O)O` [εN-acetyl-(S)-lysine], the Amino-acid formed in experiment [1] came out at 0.0 g/L.
Still for that read-out and setting: in the case of `CC(=O)NC(CCC(=O)O)C(=O)O` (racemic) [N-acetyl-(R,S)-glutamic acid] it was 0.2 g/L.
With N-acyl-pipecolic acid, the “activity of the enzyme relative to its activity on N-acetyl-proline” value in experiment [2] (enzyme of EP-A-0416282) is given as “less than 5%”.
Consider `CC(=O)NC(Cc1ccccc1)C(=O)O` (racemic) [N-acetyl-(R,S)-phenylalanine], for which, in experiment [1], the Amino-acid formed turned out to be 5.3 g/L. Besides, the “activity of the enzyme against substrate” value in experiment [2] (enzyme of EP-A-0416282) is given as “non-detectable”.
For `CC(=O)N1CCC[C@H]1C(=O)O` [N-acetyl-(S)-proline], the Amino-acid formed in experiment [1], in experiment [3] (100 mM Phosphate) and in experiment [3] (100 mM Tris) was 3.2 g/L throughout. Besides, the “Specific (activity)” value in experiment [4] was 0.033 U/mg protein. The “Volumetric Activity” value in experiment [4] was 0.042 U/ml.
Consider `CC(=O)N1CCCCC1C(=O)O` (racemic) [N-acetyl-(R,S)-pipecolic acid], for which the Amino-acid formed in experiment [1], in experiment [3] (100 mM Phosphate) and in experiment [3] (100 mM Tris) was 6.3 g/L each time. In addition, in experiment [4], the “Specific (activity)” value is 0.086 U/mg protein. The “Volumetric Activity” value in experiment [4] stood at 0.017 U/ml.
For phosphate, the “inhibitory effect on the amino acylase” value in experiment [3] (final phosphate concentration equal to or greater than 75 mM) is “no significant inhibitory effect”. Further, the “inhibition of the acylase by buffer” value in experiment [2] (buffers containing phosphate at high concentrations) is “inhibited”.
On to `CC(=O)NC(Cc1ccc(C#N)cc1)C(=O)O` (racemic) [N-acetyl-(R,S)-4-cyanophenylalanine], for which the Amino-acid formed in experiment [1] came to 8.3 g/L.
For `O=C[C@H](O)[C@@H](O)[C@H](O)[C@H](O)CO` [Glucose], the “N-acetyl-pipecolic acid acylase activity of the flask” value in experiment [4] (additive 5 g/l in growth medium) is recorded as “no N-acetyl-pipecolic acid acylase activity”. Also, the “Volumetric Activity” value in experiment [4] came to 0.00 U/ml.
